Where two headings read alike, the source gives them in different places.
Key:
Type in all cases: biochemical
MMP-1 = biological target: T1, MMP-1 (Homo sapiens, UniProt P03956); test: MMP-1 inhibitory action (Type I collagen Activity Measurement kit, FITC-labeled collagen type I)
T1 sequence (P03956 100-469): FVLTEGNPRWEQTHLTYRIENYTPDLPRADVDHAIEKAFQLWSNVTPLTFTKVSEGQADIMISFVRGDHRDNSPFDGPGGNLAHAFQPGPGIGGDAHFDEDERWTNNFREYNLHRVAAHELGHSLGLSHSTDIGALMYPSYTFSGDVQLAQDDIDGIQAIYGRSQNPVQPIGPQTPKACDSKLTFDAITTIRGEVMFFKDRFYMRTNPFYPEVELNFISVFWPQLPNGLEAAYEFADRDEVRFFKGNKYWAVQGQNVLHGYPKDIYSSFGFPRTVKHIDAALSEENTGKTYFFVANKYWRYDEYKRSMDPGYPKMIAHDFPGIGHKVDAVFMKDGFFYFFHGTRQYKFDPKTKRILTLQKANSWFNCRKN
Description: For MMP-1 Assay, Type I collagen Activity Measurement kit (YAGAI YU-72013) modified to a 96-well plate format was used.
The principle of the kit is based on the property of collagen that becomes soluble in ethanol after being cleaved by MMP-1.
(§1) The enzyme and substrate were diluted with Tris-HCl buffer, and test compounds were diluted with dimethyl sulfoxide (DMSO).
The enzyme and test compounds were added into 96-well plate, and fluorescein isothiocianate (FITC)-labeled collagen type I was added as a substrate and the mixture was incubated at 37° C. for 3 hr.
The reaction was terminated by addition of Tris-HCl buffer containing ethanol. After centrifugation, the supernatant containing denatured substrate was transferred to another 96-well plate. The collagenase activity of MMP-1 was determined by measuring FITC fluorescence intensity (excitation wavelength 485 nm, emission wavelength 530 nm) of each well. The inhibitory activity of the compound in each well (%) was calculated based on the values of enzyme-free well and inhibitor-free well. The inhibitory activity of the compound was represented as IC50 (μM).

aggrecanase-1 = biological target: T2, aggrecanase-1 (Homo sapiens, UniProt O75173); test: Aggrecanase-1 inhibitory action (Particle Assay, GAG release from aggrecan-containing polyacrylamide particles)
T2 sequence (O75173 213-837): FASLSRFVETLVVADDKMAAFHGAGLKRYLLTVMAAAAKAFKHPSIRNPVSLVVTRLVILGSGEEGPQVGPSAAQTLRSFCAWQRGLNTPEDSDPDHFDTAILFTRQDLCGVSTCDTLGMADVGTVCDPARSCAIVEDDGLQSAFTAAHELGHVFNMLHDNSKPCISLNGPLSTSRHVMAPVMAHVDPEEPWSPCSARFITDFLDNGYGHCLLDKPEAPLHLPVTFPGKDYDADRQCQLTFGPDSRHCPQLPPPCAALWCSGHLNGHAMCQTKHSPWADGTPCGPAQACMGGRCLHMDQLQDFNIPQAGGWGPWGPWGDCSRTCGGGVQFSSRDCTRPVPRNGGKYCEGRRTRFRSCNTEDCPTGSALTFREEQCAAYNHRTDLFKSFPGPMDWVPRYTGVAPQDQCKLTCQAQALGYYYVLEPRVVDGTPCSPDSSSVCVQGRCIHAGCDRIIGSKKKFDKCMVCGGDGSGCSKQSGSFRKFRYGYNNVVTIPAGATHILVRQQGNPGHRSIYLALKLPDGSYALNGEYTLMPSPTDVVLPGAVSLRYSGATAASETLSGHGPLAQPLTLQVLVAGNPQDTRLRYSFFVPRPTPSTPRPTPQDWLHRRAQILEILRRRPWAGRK
Description: Particle Assay was used for determination of aggrecanase activity.
as §1
Test compounds and the enzyme were added into 96-well plate, and polyacrylamide particles containing aggrecan were added as a substrate and the mixture was incubated at 37° C. for 15 hr.
After incubation, the supernatant was transferred to another plate, and mixed with 1,9-dimethylmethylene blue. The absorbence at 595 nm was measured to quantify the amount of glycosaminoglycan (GAG) released in the reaction supernatant. Whale chondroitin sulfate was used as the standard of GAG. The inhibitory activity of the compound in each well (%) was calculated based on the values of enzyme-free well and inhibitor-free well. The inhibitory activity of the compound was represented as […] (μM).

Recombinant Human MMP-13 = biological target: T3, Recombinant Human MMP-13 (Homo sapiens, UniProt P45452); test: MMP-13 inhibitory activity (MMP-13 specific fluorescent substrate with quencher)
T3 construct: purchased R&D systems 511-MM
Description: Inhibitory activity of tested compounds on MMP-13 was measured using MMP-13 specific fluorescent substrate with quencher.
as §1
Test compounds and the enzyme (Recombinant Human MMP-13: R&D systems, 511-MM) were added into 96-well plate. The reaction was initiated by adding synthetic substrate (7-MCA-Pro-CHA-Gly-NVal-His-Ala-DPA: enzyme systems products, Met-06) into the plate. After incubation at 25° C. for 1 h, the reaction was terminated by addition of reaction terminating solution containing acetic acid. Fluorescence intensity of each well was measured (Ex: 325 nm, […] 405 nm) and the MMP-13 inhibitory activity of the compound in each well (%) was calculated based on the values of enzyme-free well and inhibitor-free well. The inhibitory activity of the compound was represented as IC50 (μM).

[1] = Experimental Example 2, read-out: IC50 MMP1
[2] = Experimental Example 1, read-out: IC50 AG1
[3] = Experimental Example 3, read-out: IC50 MMP13
[4] = MMP-1 inhibitory action, FITC-labeled collagen type I, 37° C. for 3 hr, read-out: IC50 MMP1 (Experimental Example 2)
[5] = aggrecanase-1 inhibitory action, read-out: IC50 AG1 (Experimental Example 1)
[6] = Recombinant Human MMP-13, fluorescent substrate, 25° C. for 1 h, read-out: IC50 MMP13 (Experimental Example 3)

IC50 (MMP-1; [1]) [nM]	IC50 (aggrecanase-1; [2]) [nM]	IC50 (Recombinant Human MMP-13; [3]) [nM]	IC50 (MMP-1; [4]) [nM]	IC50 (aggrecanase-1; [5]) [nM]	IC50 (Recombinant Human MMP-13; [6]) [nM]	SMILES
≥ 10000	≥ 1000	≥ 1000				CCN(CC)CC1(c2ccccc2)CC1(NS(=O)(=O)c1ccc(-c2cc(C(F)(F)F)on2)s1)C(=O)O (stereo not drawn) [Example 2-343]
≥ 1000	< 100	< 1000				C[C@]1(c2ccccc2)C[C@@]1(NS(=O)(=O)c1ccc(-n2cc(Cl)cn2)s1)C(=O)O [Example 2-498]
			≥ 10000	< 100	< 1000	O=C(NCCO)c1ccccc1C1CC1(NS(=O)(=O)c1ccc(-c2ccc(Cl)cc2)s1)C(=O)O (stereo not drawn) [Example 2-72]
			≥ 1000	< 100	< 1000	Nc1cccc(C2CC2(NS(=O)(=O)c2ccc(-c3ccc(Cl)cc3)s2)C(=O)O)c1 (stereo not drawn) [Example 1-128]
			≥ 10000	≥ 10000	≥ 1000	O=C(O)[C@]1(NS(=O)(=O)c2ccc(-c3nc(C(F)(F)F)cs3)s2)C[C@@H]1c1ccccc1 [Example 2-60]
			≥ 10000	≥ 10000	≥ 1000	O=C(O)C1(NS(=O)(=O)N2CC(Oc3ccc(Cl)cc3)C2)CC1c1ccccc1 (stereo not drawn) [Example 2-15]
< 1000	< 100	< 100				COCC1C(c2ccccc2)C1(NS(=O)(=O)c1ccc(-c2cc(C(F)(F)F)on2)s1)C(=O)O (stereo not drawn) [Example 2-539]
			≥ 10000	≥ 10000	≥ 10000	CC(=O)c1ccc(S(=O)(=O)NC2(C(=O)O)CC2c2ccccc2)cc1 (stereo not drawn) [Example 2-80]
			≥ 10000	< 1000	< 1000	O=C(O)C1(NS(=O)(=O)c2ccc(-c3ccc(Cl)cc3)s2)CC1c1ccc(Br)cc1 (stereo not drawn) [Example 2-202]
			≥ 10000	< 1000	< 100	O=C(CCc1ccccc1C1CC1(NS(=O)(=O)c1ccc(-c2cc(C(F)(F)F)on2)s1)C(=O)O)N1CCOCC1 (stereo not drawn) [Example 2-230]
			≥ 10000	< 1000	< 1000	O=C(O)C1(NS(=O)(=O)c2ccc(-c3cc(C(F)(F)F)on3)s2)CC1c1cccc([N+](=O)[O-])c1 (stereo not drawn) [Example 2-199]
≥ 10000	< 1000	≥ 1000				O=C(NO)C1(NS(=O)(=O)c2ccc(OCc3ccc(Cl)cc3Cl)cc2)C2CCCc3ccccc3C21 (stereo not drawn) [Example 2-390]
			≥ 10000	≥ 10000	≥ 10000	CC(C)NC(=O)c1ccc(S(=O)(=O)NC2(C(=O)O)CC2c2ccccc2)s1 (stereo not drawn) [Example 2-94]
≥ 1000	≥ 1000	≥ 1000				CC1[C@H](c2ccccc2)[C@]1(NS(=O)(=O)N1CCN(CCc2ccccc2)CC1)C(=O)O (stereo partly drawn) [Example 2-531]
			≥ 10000	≥ 10000	≥ 10000	O=C(O)C1(NS(=O)(=O)N2CCN(Cc3ccccc3)CC2)CC1c1ccccc1 (stereo not drawn) [Example 2-158]
			≥ 10000	≥ 10000	≥ 1000	CCCNC(=O)c1ccc(S(=O)(=O)NC2(C(=O)O)CC2c2ccccc2)s1 (stereo not drawn) [Example 2-93]
			≥ 1000	< 100	< 100	O=C(O)C1(NS(=O)(=O)c2ccc(-c3ccc(Cl)cc3)s2)CC1c1cccc(NS(=O)(=O)c2cccnc2)c1 (stereo not drawn) [Example 1-136]

IC50 (MMP-1; [1]) [nM]	IC50 (aggrecanase-1; [2]) [nM]	IC50 (Recombinant Human MMP-13; [3]) [nM]	IC50 (MMP-1; [4]) [nM]	IC50 (aggrecanase-1; [5]) [nM]	IC50 (Recombinant Human MMP-13; [6]) [nM]	SMILES
			≥ 1000	< 1000	< 100	Cc1ccc(-c2ccc(S(=O)(=O)NC3(C(=O)O)CC3c3ccccc3)s2)cc1 (stereo not drawn) [Example 2-20]
≥ 10000	≥ 1000	≥ 10000				C[C@]1(c2ccccc2)C[C@@]1(NS(=O)(=O)c1ccc(N2CCC(F)(F)C2)s1)C(=O)O [Example 2-467]
			≥ 10000	≥ 10000	≥ 1000	O=C(O)C1(NS(=O)(=O)N2CCC(Oc3ccc(C(F)(F)F)cc3)CC2)CC1c1ccccc1 (stereo not drawn) [Example 2-144]
≥ 1000	< 1000	< 1000				Cc1cc(C2CC2(NS(=O)(=O)c2ccc(-c3cc(C(F)(F)F)on3)s2)C(=O)O)on1 (stereo not drawn) [Example 2-311]
			≥ 1000	< 100	< 100	O=C(O)C1(NS(=O)(=O)c2ccc(-c3cc(C(F)(F)F)on3)s2)CC1c1ccccc1 (stereo not drawn) [Example 1-121]
			≥ 1000	< 100	< 100	COC(=O)Cc1cccc(C2CC2(NS(=O)(=O)c2ccc(-c3ccc(Cl)cc3)s2)C(=O)O)c1 (stereo not drawn) [Example 2-188]
			≥ 1000	< 1000	< 100	O=C(O)C1(NS(=O)(=O)c2ccc(-c3ccc(Cl)cc3)cc2)CC1c1cccc(OCCn2cccn2)c1 (stereo not drawn) [Example 1-75]
			≥ 10000	< 100	< 1000	O=C(O)C1(NS(=O)(=O)c2ccc(-c3ccc(Cl)cc3)s2)CC1(CCCN1CCOCC1)c1ccccc1 (stereo not drawn) [Example 2-249]
≥ 1000	< 1000	< 1000				CC1[C@H](c2ccccc2)[C@]1(NS(=O)(=O)N1CCN(c2ccc(Cl)nn2)CC1)C(=O)O (stereo partly drawn) [Example 2-503]
			≥ 1000	< 100	< 100	CC(=O)OCCc1cccc(C2CC2(NS(=O)(=O)c2ccc(-c3ccc(Cl)cc3)s2)C(=O)O)c1 (stereo not drawn) [Example 2-108]
			≥ 1000	< 100	< 1000	O=C(O)Cc1cccc(C2CC2(NS(=O)(=O)c2ccc(-c3cc(C(F)(F)F)on3)s2)C(=O)O)c1 (stereo not drawn) [Example 2-212]
≥ 10000	≥ 1000	≥ 1000				CC(C)N1CCN(c2ccc(S(=O)(=O)N[C@@]3(C(=O)O)C[C@]3(C)c3ccccc3)s2)CC1 [Example 2-443]
			≥ 10000	< 1000	≥ 1000	C[C@]1(c2ccccc2)C[C@@]1(NS(=O)(=O)c1ccc(-c2cc(C(F)(F)C(F)(F)F)on2)s1)C(=O)O [Example 2-112]
< 1000	< 100	< 100				O=C(Cc1ccc([C@@H]2C[C@]2(NS(=O)(=O)c2ccc(-c3cc(C(F)(F)F)on3)s2)C(=O)O)cc1)N1CCOCC1 [Example 2-291]
≥ 10000	≥ 1000	≥ 1000				CC(C)NCC1(c2ccccc2)CC1(NS(=O)(=O)c1ccc(-c2ccc(Cl)cc2)s1)C(=O)O (stereo not drawn) [Example 2-392]
			≥ 10000	≥ 10000	≥ 10000	CC(C)(C)C#Cc1ccc(S(=O)(=O)N[C@@]2(C(=O)O)C[C@@H]2c2ccccc2)s1 [Example 2-132]
≥ 10000	≥ 1000	≥ 1000				C[C@]1(c2ccccc2)C[C@@]1(NS(=O)(=O)c1ccc(-c2ccc(F)c(C#N)c2)s1)C(=O)O [Example 2-420]

From patent US20080261994A1, “CYCLOPROPANE COMPOUNDS AND PHARMACEUTICAL USE THEREOF” (Japan Tobacco Inc., priority 2003, published 2008)
